Assay results taken from patent US9266876B2 (Actelion Pharmaceuticals Ltd., priority 2012, dated 2016).

Target: human CXCR3A (Homo sapiens (Human), UniProt P49682)
Test: FLIPR assay
Type: cell-based
Conditions: CHO-K1 cells expressing the human CXCR3A coupled to Galpha(16); CXCL10 agonist 20 nM; Fluo-4-AM fluorescence; mean values if determined several times
Method: The bioactivity of compounds is tested in a fluorometric imaging plate reader (FLIPR: Molecular Devices) using engineered CHO-K1 cells expressing the human CXCR3A coupled to a G protein (Galpha(16)). Cells are plated the day prior to bioassay in F12 medium supplemented with 10% FBS and G418 and hygromycin antibiotics to maintain recombinant selection. At the day of bioassay, cells are washed and dye loaded for one hour with Fluo-4-AM (Invitrogen) in Hanks Balanced Salt Solution (Invitrogen), buffered with 20 mM Hepes at pH 7.4 and sodium bicarbonate (0.015%), containing 5 mM probenecid. […] Cells are washed free of excess dye and 60 microliter of wash buffer is added. Stock solutions of test compounds are made up at a concentration of 10 mM in DMSO, and serially diluted in dilution buffer to concentrations required for inhibition dose response curves. After a 10 minute incubation period at 37° C., 10 microliters of each compound dilution are transferred from a compound plate to the plate containing the recombinant cells in the FLIPR instrument according to the manufacturer's instructions. Following basal readings, 10 microliter CXCL10 agonist at a concentration of 20 nM (from Peprotech) is added, again using the FLIPR instrument. Changes in fluorescence are monitored before and after addition of the test compounds. Emission peak values above base level after CXCL10 addition are exported after base line subtraction. The program XLfit is used to fit the data to a single site dose response curve and to calculate IC50 values.

human CXCR3A, sequence (P49682 whole entry): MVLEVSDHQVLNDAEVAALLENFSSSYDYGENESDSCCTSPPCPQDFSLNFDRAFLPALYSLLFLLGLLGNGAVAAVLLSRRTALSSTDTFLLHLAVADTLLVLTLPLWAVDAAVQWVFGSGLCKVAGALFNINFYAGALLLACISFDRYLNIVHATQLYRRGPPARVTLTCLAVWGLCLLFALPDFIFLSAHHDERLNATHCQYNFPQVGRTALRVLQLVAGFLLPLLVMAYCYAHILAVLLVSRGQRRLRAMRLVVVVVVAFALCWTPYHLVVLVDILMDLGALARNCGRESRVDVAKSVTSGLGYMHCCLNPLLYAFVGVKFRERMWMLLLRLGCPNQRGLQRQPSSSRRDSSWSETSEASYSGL

Row | IC50 [nM] | Compound
1 | 9 | Cc1cn(CC(=O)N2CCN(c3scnc3-c3nc4ccccc4[nH]3)CC2)c2ncccc12 [Example 67, 1-{4-[4-(1H-Benzoimidazol-2-yl)-thiazol-5-yl]-piperazin-1-yl}-2-(3-methyl-pyrrolo[2,3-b]pyridin-1-yl)-ethanone]
2 | 109 | C[C@@H]1CN(c2scnc2-c2nc3ccccc3[nH]2)CCN1C(=O)Cc1nc2cc(Cl)ccc2[nH]1 [Example 129, 1-{(R)-4-[4-(1H-Benzoimidazol-2-yl)-thiazol-5-yl]-2-methyl-piperazin-1-yl}-2-(5-chloro-1H-benzoimidazol-2-yl)-ethanone]
3 | 69 | 1-{(R)-4-[4-(1H-Benzoimidazol-2-yl)-thiazol-5-yl]-2-methoxymethyl-piperazin-1-yl}-2-pyrrolo[2,3-b]pyridin-1-yl-ethanone [Example 20]
4 | 4 | C[C@@H]1CN(c2scnc2-c2nc3c(C(F)(F)F)cccc3[nH]2)CCN1C(=O)Cn1cnc2cccnc21 [Example 95, 2-Imidazo[4,5-b]pyridin-3-yl-1-{(R)-2-methyl-4-[4-(4-trifluoromethyl-1H-benzoimidazol-2-yl)-thiazol-5-yl]-piperazin-1-yl}-ethanone]
5 | 47 | C[C@@H]1CN(c2scnc2-c2nc3ccccc3[nH]2)CCN1C(=O)Cc1c[nH]c2ccc(F)cc12 [Example 128, 1-{(R)-4-[4-(1H-Benzoimidazol-2-yl)-thiazol-5-yl]-2-methyl-piperazin-1-yl}-2-(5-fluoro-1H-indol-3-yl)-ethanone]
6 | 1 | C[C@@H]1CN(c2scnc2-c2nc3cc(C(C)(C)C)ccc3[nH]2)CCN1C(=O)Cn1cnc2cccnc21 [Example 86, 1-{(R)-4-[4-(5-tert-Butyl-1H-benzoimidazol-2-yl)-thiazol-5-yl]-2-methyl-piperazin-1-yl}-2-imidazo[4,5-b]pyridin-3-yl-ethanone]
7 | 152 | C[C@@H]1CN(c2scnc2-c2nc3ccccc3[nH]2)CCN1C(=O)Cc1ccc2c(c1)NC(=O)CO2 [Example 122, 6-(2-{(R)-4-[4-(1H-Benzoimidazol-2-yl)-thiazol-5-yl]-2-methyl-piperazin-1-yl}-2-oxo-ethyl)-4H-benzo[1,4]oxazin-3-one]
8 | 92 | Cc1cc(C)n(CC(=O)N2CCN(c3scnc3-c3nc4ccccc4[nH]3)CC2)n1 [Example 13, 1-{4-[4-(1H-Benzoimidazol-2-yl)-thiazol-5-yl]-piperazin-1-yl}-2-(3,5-dimethyl-pyrazol-1-yl)-ethanone]
9 | 115 | C[C@@H]1CN(c2scnc2-c2nc3ccccc3[nH]2)CCN1C(=O)Cc1csc2ccc(Cl)cc12 [Example 134, 1-{(R)-4-[4-(1H-Benzoimidazol-2-yl)-thiazol-5-yl]-2-methyl-piperazin-1-yl}-2-(5-chloro-benzo[b]thiophen-3-yl)-ethanone]
10 | 30 | Cc1nc(C)n(CC(=O)N2CCN(c3sc(C(F)(F)F)nc3-c3nc4ccc(N5CCCC5=O)cc4[nH]3)C[C@H]2C)n1 [Example 235, 1-[2-(5-{(R)-4-[2-(3,5-Dimethyl-[1,2,4]triazol-1-yl)-acetyl]-3-methyl-piperazin-1-yl}-2-trifluoromethyl-thiazol-4-yl)-3H-benzoimidazol-5-yl]-pyrrolidin-2-one]
11 | 4 | N#Cc1cn(CC(=O)N2CCN(c3scnc3-c3nc4ccccc4[nH]3)CC2)c2ccccc12 [Example 59, 1-(2-{4-[4-(1H-Benzoimidazol-2-yl)-thiazol-5-yl]-piperazin-1-yl}-2-oxo-ethyl)-1H-indole-3-carbonitrile]
12 | 34 | Cc1cc2ccccc2n1CC(=O)N1CCN(c2scnc2-c2nc3ccccc3[nH]2)CC1 [Example 58, 1-{4-[4-(1H-Benzoimidazol-2-yl)-thiazol-5-yl]-piperazin-1-yl}-2-(2-methyl-indol-1-yl)-ethanone]
13 | 42 | C[C@@H]1CN(c2scnc2-c2nc3ccccc3[nH]2)CCN1C(=O)Cc1ccc2nccnc2c1 [Example 121, 1-{(R)-4-[4-(1H-Benzoimidazol-2-yl)-thiazol-5-yl]-2-methyl-piperazin-1-yl}-2-quinoxalin-6-yl-ethanone]
